From article PMC7026418, “The kinase polypharmacology landscape of clinical PARP inhibitors” (Scientific Reports, 2020)
Read-outs that look alike come from different tables or passages of the source.

Legend:
Experiment in all cases: biochemical
Design in all cases: DiscoveRx KINOMEscan active site-directed competition binding; percent of control kinase bound to immobilised ligand
CSF1R-autoinhibited = CSF1R-autoinhibited (Homo sapiens, UniProt P07333)
EPHB6 = biological target: T1, EPHB6 (Homo sapiens, UniProt O15197)
T1 sequence (O15197 1-1021): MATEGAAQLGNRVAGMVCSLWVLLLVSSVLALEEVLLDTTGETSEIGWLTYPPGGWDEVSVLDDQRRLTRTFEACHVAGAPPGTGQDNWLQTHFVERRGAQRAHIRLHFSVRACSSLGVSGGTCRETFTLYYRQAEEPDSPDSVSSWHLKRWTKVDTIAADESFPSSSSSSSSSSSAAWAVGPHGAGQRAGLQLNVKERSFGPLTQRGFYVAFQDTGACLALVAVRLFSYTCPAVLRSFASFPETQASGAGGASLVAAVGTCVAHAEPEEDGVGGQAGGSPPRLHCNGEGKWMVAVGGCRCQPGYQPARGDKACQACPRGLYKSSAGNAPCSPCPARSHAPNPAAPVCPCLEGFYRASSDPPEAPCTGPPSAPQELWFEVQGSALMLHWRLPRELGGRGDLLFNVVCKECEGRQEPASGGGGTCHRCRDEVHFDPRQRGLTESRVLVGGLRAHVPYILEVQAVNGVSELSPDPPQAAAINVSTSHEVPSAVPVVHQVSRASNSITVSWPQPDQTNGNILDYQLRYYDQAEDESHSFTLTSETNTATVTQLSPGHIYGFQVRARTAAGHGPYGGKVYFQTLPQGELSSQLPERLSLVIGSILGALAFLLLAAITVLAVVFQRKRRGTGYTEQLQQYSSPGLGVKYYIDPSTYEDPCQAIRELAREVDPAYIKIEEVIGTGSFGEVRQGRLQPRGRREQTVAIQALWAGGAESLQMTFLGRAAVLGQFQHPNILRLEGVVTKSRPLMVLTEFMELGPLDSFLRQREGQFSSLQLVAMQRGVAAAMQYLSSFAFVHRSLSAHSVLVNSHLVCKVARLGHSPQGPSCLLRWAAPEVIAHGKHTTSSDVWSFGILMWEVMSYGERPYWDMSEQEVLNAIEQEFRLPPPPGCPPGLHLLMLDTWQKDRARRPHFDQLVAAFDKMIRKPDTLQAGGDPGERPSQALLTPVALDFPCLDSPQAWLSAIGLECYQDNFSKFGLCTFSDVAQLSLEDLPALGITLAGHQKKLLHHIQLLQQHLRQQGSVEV

KIT(A829P) = KIT(A829P) (Homo sapiens, UniProt P10721, A829P)
MEK2 = biological target: T2, MEK2 (Homo sapiens, UniProt P36507)
T2 construct: gene MAP2K2

PIK3C2G = biological target: T3, PIK3C2G (Homo sapiens, UniProt O75747)
T3 sequence (O75747 1-1486): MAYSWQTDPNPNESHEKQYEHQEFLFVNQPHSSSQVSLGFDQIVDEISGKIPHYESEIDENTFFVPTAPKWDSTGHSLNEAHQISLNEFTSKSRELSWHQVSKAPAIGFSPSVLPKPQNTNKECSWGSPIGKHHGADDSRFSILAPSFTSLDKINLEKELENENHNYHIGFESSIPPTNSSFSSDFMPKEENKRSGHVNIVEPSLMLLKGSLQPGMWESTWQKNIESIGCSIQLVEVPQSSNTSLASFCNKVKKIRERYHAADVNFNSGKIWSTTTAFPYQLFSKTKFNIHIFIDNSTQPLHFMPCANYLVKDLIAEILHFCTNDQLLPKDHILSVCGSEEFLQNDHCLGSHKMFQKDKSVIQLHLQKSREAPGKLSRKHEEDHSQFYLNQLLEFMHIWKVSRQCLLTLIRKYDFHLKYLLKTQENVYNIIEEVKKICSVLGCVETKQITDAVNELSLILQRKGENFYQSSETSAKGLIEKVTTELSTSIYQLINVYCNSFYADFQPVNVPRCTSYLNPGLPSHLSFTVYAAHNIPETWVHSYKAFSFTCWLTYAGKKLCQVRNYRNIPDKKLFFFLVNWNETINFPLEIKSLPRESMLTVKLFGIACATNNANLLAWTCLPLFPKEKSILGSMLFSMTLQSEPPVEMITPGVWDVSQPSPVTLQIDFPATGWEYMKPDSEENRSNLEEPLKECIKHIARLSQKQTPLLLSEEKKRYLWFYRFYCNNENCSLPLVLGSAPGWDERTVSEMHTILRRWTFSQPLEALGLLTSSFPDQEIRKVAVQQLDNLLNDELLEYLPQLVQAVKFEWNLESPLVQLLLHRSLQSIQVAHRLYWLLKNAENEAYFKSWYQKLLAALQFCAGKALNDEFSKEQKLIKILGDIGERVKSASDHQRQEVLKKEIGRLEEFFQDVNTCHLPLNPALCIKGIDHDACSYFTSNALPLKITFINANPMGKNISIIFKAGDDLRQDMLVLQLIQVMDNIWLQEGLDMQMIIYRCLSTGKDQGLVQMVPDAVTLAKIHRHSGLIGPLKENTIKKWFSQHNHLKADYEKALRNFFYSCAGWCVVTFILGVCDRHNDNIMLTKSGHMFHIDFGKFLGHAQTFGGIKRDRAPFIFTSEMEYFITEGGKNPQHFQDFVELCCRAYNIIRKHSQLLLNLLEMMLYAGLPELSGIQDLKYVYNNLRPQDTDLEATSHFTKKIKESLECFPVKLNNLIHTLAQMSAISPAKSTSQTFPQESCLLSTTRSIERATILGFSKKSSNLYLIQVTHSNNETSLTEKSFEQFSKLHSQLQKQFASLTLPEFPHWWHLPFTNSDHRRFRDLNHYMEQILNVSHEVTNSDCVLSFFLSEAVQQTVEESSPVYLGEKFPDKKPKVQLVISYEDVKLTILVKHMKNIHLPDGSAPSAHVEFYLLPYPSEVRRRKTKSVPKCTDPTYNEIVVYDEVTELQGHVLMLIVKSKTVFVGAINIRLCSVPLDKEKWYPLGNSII

TRKB = biological target: T4, TRKB (Homo sapiens, UniProt Q16620)
T4 construct: gene NTRK2

[1] = read-out: Talazoparib (BMN 673) / %Ctrl @ 10000nM
[2] = read-out: Olaparib / %Ctrl @ 10000nM
[3] = read-out: Rucaparib / %Ctrl @ 10000nM, binding competition, % of control
[4] = read-out: Niraparib (MK-4827) / %Ctrl @ 10000nM

Chain of KIT(A829P) (P10721 whole entry A829P): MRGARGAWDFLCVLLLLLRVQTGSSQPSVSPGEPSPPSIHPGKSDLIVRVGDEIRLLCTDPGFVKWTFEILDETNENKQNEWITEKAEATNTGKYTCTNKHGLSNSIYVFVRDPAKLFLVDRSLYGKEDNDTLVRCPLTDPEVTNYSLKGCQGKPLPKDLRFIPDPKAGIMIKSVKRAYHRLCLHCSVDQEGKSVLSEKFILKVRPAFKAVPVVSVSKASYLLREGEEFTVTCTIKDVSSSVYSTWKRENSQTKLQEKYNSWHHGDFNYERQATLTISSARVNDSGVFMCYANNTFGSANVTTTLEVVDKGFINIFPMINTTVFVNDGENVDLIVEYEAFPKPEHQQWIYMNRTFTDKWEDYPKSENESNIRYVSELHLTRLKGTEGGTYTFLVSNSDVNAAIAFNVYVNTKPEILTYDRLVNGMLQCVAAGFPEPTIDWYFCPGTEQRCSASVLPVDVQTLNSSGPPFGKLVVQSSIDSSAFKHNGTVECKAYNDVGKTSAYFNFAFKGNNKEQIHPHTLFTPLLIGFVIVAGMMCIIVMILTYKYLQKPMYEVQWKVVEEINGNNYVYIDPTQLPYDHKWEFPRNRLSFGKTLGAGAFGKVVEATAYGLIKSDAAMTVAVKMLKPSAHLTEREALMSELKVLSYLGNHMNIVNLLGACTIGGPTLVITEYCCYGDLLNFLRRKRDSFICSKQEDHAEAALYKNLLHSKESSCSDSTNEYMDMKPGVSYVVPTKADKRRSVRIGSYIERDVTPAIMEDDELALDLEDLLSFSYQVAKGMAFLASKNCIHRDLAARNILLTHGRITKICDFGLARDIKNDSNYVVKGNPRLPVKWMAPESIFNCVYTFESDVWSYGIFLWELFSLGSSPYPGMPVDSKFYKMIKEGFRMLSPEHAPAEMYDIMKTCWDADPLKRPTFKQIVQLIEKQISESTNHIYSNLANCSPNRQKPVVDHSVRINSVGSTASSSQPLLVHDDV
Chain of CSF1R-autoinhibited (P07333 whole entry): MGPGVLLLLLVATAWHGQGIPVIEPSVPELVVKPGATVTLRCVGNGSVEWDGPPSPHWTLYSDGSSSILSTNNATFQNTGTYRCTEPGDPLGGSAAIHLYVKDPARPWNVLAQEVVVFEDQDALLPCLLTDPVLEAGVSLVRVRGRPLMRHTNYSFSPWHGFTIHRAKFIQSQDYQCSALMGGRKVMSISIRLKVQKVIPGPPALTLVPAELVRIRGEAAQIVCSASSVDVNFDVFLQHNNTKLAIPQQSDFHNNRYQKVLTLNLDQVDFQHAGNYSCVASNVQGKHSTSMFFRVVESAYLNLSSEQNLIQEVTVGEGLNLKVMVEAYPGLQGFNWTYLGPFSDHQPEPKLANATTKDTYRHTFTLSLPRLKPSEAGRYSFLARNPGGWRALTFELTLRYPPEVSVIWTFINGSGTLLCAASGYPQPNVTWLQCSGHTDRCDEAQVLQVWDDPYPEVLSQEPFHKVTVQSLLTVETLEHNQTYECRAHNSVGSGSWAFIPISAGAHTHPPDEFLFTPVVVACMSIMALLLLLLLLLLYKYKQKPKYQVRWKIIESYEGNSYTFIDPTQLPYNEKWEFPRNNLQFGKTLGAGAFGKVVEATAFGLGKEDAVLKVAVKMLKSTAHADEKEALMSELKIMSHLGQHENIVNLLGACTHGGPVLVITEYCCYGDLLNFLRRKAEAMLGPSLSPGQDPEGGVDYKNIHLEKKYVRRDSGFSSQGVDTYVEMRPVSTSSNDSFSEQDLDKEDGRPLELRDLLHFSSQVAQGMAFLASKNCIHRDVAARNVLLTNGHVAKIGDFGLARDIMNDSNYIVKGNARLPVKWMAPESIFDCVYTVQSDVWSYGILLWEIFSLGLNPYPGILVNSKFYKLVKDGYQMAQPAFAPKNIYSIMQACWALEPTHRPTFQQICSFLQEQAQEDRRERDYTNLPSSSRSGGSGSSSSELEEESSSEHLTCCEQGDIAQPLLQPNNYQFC
T4 sequence (Q16620 whole entry): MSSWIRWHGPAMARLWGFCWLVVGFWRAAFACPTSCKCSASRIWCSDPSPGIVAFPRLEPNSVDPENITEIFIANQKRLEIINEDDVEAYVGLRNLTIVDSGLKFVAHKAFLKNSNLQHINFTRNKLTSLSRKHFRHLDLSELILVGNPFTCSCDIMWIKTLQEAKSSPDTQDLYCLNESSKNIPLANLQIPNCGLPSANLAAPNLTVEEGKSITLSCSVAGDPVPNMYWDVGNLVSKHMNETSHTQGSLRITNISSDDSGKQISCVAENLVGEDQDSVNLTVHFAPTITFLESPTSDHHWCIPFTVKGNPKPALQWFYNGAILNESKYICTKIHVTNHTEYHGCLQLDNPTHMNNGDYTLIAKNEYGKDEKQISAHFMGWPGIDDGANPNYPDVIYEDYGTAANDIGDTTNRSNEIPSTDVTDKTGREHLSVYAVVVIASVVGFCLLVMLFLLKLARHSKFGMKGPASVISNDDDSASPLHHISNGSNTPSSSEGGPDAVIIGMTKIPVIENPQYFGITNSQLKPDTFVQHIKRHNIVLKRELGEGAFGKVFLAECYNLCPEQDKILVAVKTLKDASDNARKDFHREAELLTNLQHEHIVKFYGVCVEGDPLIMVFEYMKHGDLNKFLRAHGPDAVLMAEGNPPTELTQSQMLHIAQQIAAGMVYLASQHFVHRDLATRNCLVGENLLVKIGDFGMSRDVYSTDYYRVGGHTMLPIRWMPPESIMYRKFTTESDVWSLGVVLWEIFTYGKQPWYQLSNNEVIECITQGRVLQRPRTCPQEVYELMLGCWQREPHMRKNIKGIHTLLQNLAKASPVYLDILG
T2 sequence (P36507 whole entry): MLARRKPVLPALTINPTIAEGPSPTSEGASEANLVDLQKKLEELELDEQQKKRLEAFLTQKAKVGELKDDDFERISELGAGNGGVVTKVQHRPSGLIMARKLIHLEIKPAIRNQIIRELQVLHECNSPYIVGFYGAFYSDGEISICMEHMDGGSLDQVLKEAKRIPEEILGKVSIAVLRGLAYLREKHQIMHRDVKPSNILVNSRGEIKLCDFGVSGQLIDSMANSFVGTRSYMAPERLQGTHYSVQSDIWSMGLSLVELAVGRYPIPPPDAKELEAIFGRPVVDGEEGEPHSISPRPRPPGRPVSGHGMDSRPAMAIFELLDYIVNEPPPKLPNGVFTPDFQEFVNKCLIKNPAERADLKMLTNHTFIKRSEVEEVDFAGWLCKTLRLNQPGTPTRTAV

Compound: Cn1ncnc1[C@H]1c2n[nH]c(=O)c3cc(F)cc(c23)N[C@@H]1c1ccc(F)cc1 [Talazoparib]
- percent of control binding at 10 µM (CSF1R-autoinhibited; [1]): 100%
- percent of control binding at 10 µM (EPHB6; [1]): 84%
- percent of control binding at 10 µM (KIT(A829P); [1]): 100%
- percent of control binding at 10 µM (MEK2; [1]): 57%
- percent of control binding at 10 µM (PIK3C2G; [1]): 81%
- percent of control binding at 10 µM (TRKB; [1]): 100%

Compound: O=C(c1cc(Cc2n[nH]c(=O)c3ccccc23)ccc1F)N1CCN(C(=O)C2CC2)CC1 [Olaparib]
- percent of control binding at 10 µM (CSF1R-autoinhibited; [2]): 95%
- percent of control binding at 10 µM (EPHB6; [2]): 81%
- percent of control binding at 10 µM (MEK2; [2]): 87%
- percent of control binding at 10 µM (PIK3C2G; [2]): 82%
- percent of control binding at 10 µM (TRKB; [2]): 76%

Compound: CNCc1ccc(-c2[nH]c3cc(F)cc4c3c2CCNC4=O)cc1 [Rucaparib]
- percent of control binding at 10 µM (CSF1R-autoinhibited; [3]): 99%
- percent of control binding at 10 µM (EPHB6; [3]): 50%
- percent of control binding at 10 µM (KIT(A829P); [3]): 88%
- percent of control binding at 10 µM (MEK2; [3]): 79%
- percent of control binding at 10 µM (PIK3C2G; [3]): 73%
- percent of control binding at 10 µM (TRKB; [3]): 66%

Compound: NC(=O)c1cccc2cn(-c3ccc([C@@H]4CCCNC4)cc3)nc12 [Niraparib]
- percent of control binding at 10 µM (CSF1R-autoinhibited; [4]): 81%
- percent of control binding at 10 µM (EPHB6; [4]): 34%
- percent of control binding at 10 µM (KIT(A829P); [4]): 98%
- percent of control binding at 10 µM (MEK2; [4]): 74%
- percent of control binding at 10 µM (PIK3C2G; [4]): 79%
- percent of control binding at 10 µM (TRKB; [4]): 96%
